According to PubChem BioAssay (NCI):
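1) Cells in 96-well plates. 2) Compound, 48 h, 5 concentrations. 3) Linear interpolation between surrounding doses. 4) Unreached endpoint = highest concentration. At the TGI there is no net growth.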

Key:
Experiment in all cases: inhibition of tumour cell growth, NCI panel, 48 h
786-0 renal = test system: 786-0 renal
A498 renal = test system: A498 renal
A549 NSCLC = test system: A549 NSCLC
ACHN renal = test system: ACHN renal
CAKI-1 renal = test system: CAKI-1 renal
CCRF-CEM leukemia = test system: CCRF-CEM leukemia
COLO 205 colon = test system: COLO 205 colon
DLD-1 colon = test system: DLD-1 colon
DMS 114 small cell lung = test system: DMS 114 small cell lung
DMS 273 small cell lung = test system: DMS 273 small cell lung
EKVX NSCLC = test system: EKVX NSCLC
HCC-2998 colon = test system: HCC-2998 colon
HCT-116 colon = test system: HCT-116 colon
HCT-15 colon = test system: HCT-15 colon
HOP-18 NSCLC = test system: HOP-18 NSCLC
HOP-92 NSCLC = test system: HOP-92 NSCLC
HT29 colon = test system: HT29 colon
IGROV1 ovarian = test system: IGROV1 ovarian
K-562 leukemia = test system: K-562 leukemia
KM12 colon = test system: KM12 colon
KM20L2 colon = test system: KM20L2 colon
LOX IMVI melanoma = test system: LOX IMVI melanoma
LXFL 529 NSCLC = test system: LXFL 529 NSCLC
M14 melanoma = test system: M14 melanoma
M19-MEL melanoma = test system: M19-MEL melanoma
MALME-3M melanoma = test system: MALME-3M melanoma
MOLT-4 leukemia = test system: MOLT-4 leukemia
NCI-H226 lung = test system: NCI-H226 lung
NCI-H23 lung = test system: NCI-H23 lung
NCI-H460 lung = test system: NCI-H460 lung
NCI-H522 lung = test system: NCI-H522 lung
OVCAR-3 ovarian = test system: OVCAR-3 ovarian
OVCAR-4 ovarian = test system: OVCAR-4 ovarian
OVCAR-5 ovarian = test system: OVCAR-5 ovarian
OVCAR-8 ovarian = test system: OVCAR-8 ovarian
RXF 393 renal = test system: RXF 393 renal
SF-268 CNS = test system: SF-268 CNS
SF-295 CNS = test system: SF-295 CNS
SF-539 CNS = test system: SF-539 CNS
SK-MEL-2 melanoma = test system: SK-MEL-2 melanoma
SK-MEL-28 melanoma = test system: SK-MEL-28 melanoma
SK-MEL-5 melanoma = test system: SK-MEL-5 melanoma
SK-OV-3 ovarian = test system: SK-OV-3 ovarian
SN12C renal = test system: SN12C renal
SNB-19 CNS = test system: SNB-19 CNS
SNB-75 CNS = test system: SNB-75 CNS
SNB-78 CNS = test system: SNB-78 CNS
SW-620 colon = test system: SW-620 colon
TK-10 renal = test system: TK-10 renal
U251 CNS = test system: U251 CNS
UACC-257 melanoma = test system: UACC-257 melanoma
UACC-62 melanoma = test system: UACC-62 melanoma
UO-31 renal = test system: UO-31 renal
RPMI-8226 leukemia = test system: RPMI-8226 leukemia
HL-60(TB) leukemia = test system: HL-60(TB) leukemia
SR leukemia = test system: SR leukemia

Measured: TGI

N#CC1(Cc2ccccc2[N+](=O)[O-])c2ccccc2C2C(N1C(=O)c1ccccc1)C2(Cl)Cl (configuration not stated)
> 100 µM: 786-0 renal | A498 renal | A549 NSCLC | ACHN renal | CAKI-1 renal | CCRF-CEM leukemia | COLO 205 colon | DLD-1 colon | DMS 114 small cell lung | DMS 273 small cell lung | EKVX NSCLC | HCC-2998 colon | HCT-116 colon | HCT-15 colon | HOP-18 NSCLC | HOP-92 NSCLC | HT29 colon | IGROV1 ovarian | K-562 leukemia | KM12 colon | KM20L2 colon | LOX IMVI melanoma | LXFL 529 NSCLC | M14 melanoma | M19-MEL melanoma | MALME-3M melanoma | MOLT-4 leukemia | NCI-H226 lung | NCI-H23 lung | NCI-H460 lung | NCI-H522 lung | OVCAR-3 ovarian | OVCAR-4 ovarian | OVCAR-5 ovarian | OVCAR-8 ovarian | RXF 393 renal | SF-268 CNS | SF-295 CNS | SF-539 CNS | SK-MEL-2 melanoma | SK-MEL-28 melanoma | SK-MEL-5 melanoma | SK-OV-3 ovarian | SN12C renal | SNB-19 CNS | SNB-75 CNS | SNB-78 CNS | SW-620 colon | TK-10 renal | U251 CNS | UACC-257 melanoma | UACC-62 melanoma | UO-31 renal

CC1CC(=O)C2CC(CO)=CCCC2C1(C)CC/C(=C/CO)CO (configuration not stated)
> 100 µM: 786-0 renal | A498 renal | A549 NSCLC | ACHN renal | CAKI-1 renal | CCRF-CEM leukemia | COLO 205 colon | DLD-1 colon | DMS 114 small cell lung | DMS 273 small cell lung | EKVX NSCLC | HCC-2998 colon | HCT-116 colon | HCT-15 colon | HOP-18 NSCLC | HOP-92 NSCLC | HT29 colon | IGROV1 ovarian | K-562 leukemia | KM12 colon | LXFL 529 NSCLC | M14 melanoma | M19-MEL melanoma | MALME-3M melanoma | MOLT-4 leukemia | NCI-H226 lung | NCI-H23 lung | NCI-H460 lung | NCI-H522 lung | OVCAR-3 ovarian | OVCAR-8 ovarian | RPMI-8226 leukemia | RXF 393 renal | SF-295 CNS | SK-MEL-28 melanoma | SK-MEL-5 melanoma | SK-OV-3 ovarian | SN12C renal | SNB-75 CNS | SNB-78 CNS | SW-620 colon | TK-10 renal | U251 CNS | UACC-257 melanoma | UACC-62 melanoma | UO-31 renal

NC1C(O)C(O)C(CO)OC1n1cc(F)c(=O)[nH]c1=O (configuration not stated)
> 100 µM: A549 NSCLC | ACHN renal | CAKI-1 renal | CCRF-CEM leukemia | COLO 205 colon | DLD-1 colon | DMS 114 small cell lung | DMS 273 small cell lung | HCC-2998 colon | HCT-116 colon | HCT-15 colon | HL-60(TB) leukemia | HOP-18 NSCLC | HOP-92 NSCLC | HT29 colon | KM12 colon | LOX IMVI melanoma | LXFL 529 NSCLC | MALME-3M melanoma | MOLT-4 leukemia | NCI-H226 lung | NCI-H23 lung | NCI-H460 lung | NCI-H522 lung | OVCAR-4 ovarian | OVCAR-5 ovarian | RPMI-8226 leukemia | RXF 393 renal | SF-268 CNS | SF-295 CNS | SK-MEL-2 melanoma | SK-MEL-28 melanoma | SK-MEL-5 melanoma | SK-OV-3 ovarian | SN12C renal | SNB-19 CNS | SNB-75 CNS | SNB-78 CNS | SR leukemia | SW-620 colon | TK-10 renal | U251 CNS | UACC-257 melanoma
